The results in this text go back to PubChem BioAssay (NCI).

Among the test systems are HCT-116 colon; MALME-3M melanoma; NCI-H23 lung; SK-MEL-28 melanoma; EKVX NSCLC; NCI-H522 lung; HOP-62 NSCLC; CCRF-CEM leukemia; IGROV1 ovarian; OVCAR-8 ovarian; RXF 393 renal; HOP-92 NSCLC; SW-620 colon; OVCAR-3 ovarian.
Assay in all cases: NCI anticancer screen, dose series, 48 h

Structures are written as SMILES.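 Growth conditions: 96-well plates. Treatment: test compound, 48 hours, 5 concentrations. Analysis: linear interpolation between bracketing concentrations; unreached endpoints set to highest concentration. The concentration for full growth arrest is given as TGI.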

On to `COc1cc(O)c2c(=O)c(OC)c(-c3ccc4c(c3)OCO4)oc2c1`, for which the TGI in the assay on HCT-116 colon, in the assay with MALME-3M melanoma, in the assay with NCI-H23 lung, with SK-MEL-28 melanoma, in the assay with EKVX NSCLC and in the assay on NCI-H522 lung was over 100 µM in each case. The TGI in the assay with HOP-62 NSCLC is over 63.1 µM; in the assay on CCRF-CEM leukemia, over 100 µM; in the assay with IGROV1 ovarian, over 100 µM; in the assay with OVCAR-8 ovarian it was over 100 µM; in the assay on RXF 393 renal it was over 100 µM; in the assay with HOP-92 NSCLC it was over 57.7 µM. The TGI in the assay on SW-620 colon was over 100 µM.
For the compound `CCN(CC)CCNc1ccc2ncn3c4c(OC)ccc(OC)c4c(=O)c1c23`, the TGI was 17.3 µM in the assay on HCT-116 colon; over 100 µM in the assay with OVCAR-3 ovarian; 41.8 µM in the assay with MALME-3M melanoma; 75.5 µM in the assay on NCI-H23 lung; 39.2 µM with SK-MEL-28 melanoma; 35.6 µM in the assay on EKVX NSCLC. Further, the TGI with NCI-H522 lung is 44.2 µM; in the assay with HOP-62 NSCLC, over 100 µM; with CCRF-CEM leukemia it was 27.1 µM; in the assay on OVCAR-8 ovarian it was 68.5 µM; in the assay with RXF 393 renal, 10.3 µM; in the assay on HOP-92 NSCLC, 31.2 µM. Besides, the TGI with SW-620 colon stood at 18.2 µM.
`C=CCN1C(=O)CC1N(CC=C)S(=O)(=O)c1ccc(C)cc1` (stereo not drawn): the TGI in the assay with HCT-116 colon, with OVCAR-3 ovarian, with MALME-3M melanoma, with NCI-H23 lung, in the assay with SK-MEL-28 melanoma and in the assay with EKVX NSCLC was over 100 µM each time. The TGI with NCI-H522 lung, in the assay on CCRF-CEM leukemia, in the assay on IGROV1 ovarian, in the assay on OVCAR-8 ovarian, in the assay on RXF 393 renal and with HOP-92 NSCLC was over 100 µM each time. Besides, the TGI with SW-620 colon is over 100 µM.
In the case of `COc1ccc(C2=C(Cl)c3cc(OC)c(OC)cc3C2=O)cc1OC`, the TGI with HCT-116 colon was found to be 15.2 µM; in the assay on OVCAR-3 ovarian, 6.56 µM; in the assay with MALME-3M melanoma it was 26 µM; in the assay with NCI-H23 lung it was 26.7 µM; with EKVX NSCLC, 37.9 µM; in the assay on NCI-H522 lung, 27 µM. Besides, the TGI in the assay with HOP-62 NSCLC is 30.4 µM; in the assay with CCRF-CEM leukemia it was over 100 µM; in the assay with IGROV1 ovarian, 32.1 µM; in the assay with OVCAR-8 ovarian, 31.9 µM; in the assay with RXF 393 renal, 18 µM; in the assay on HOP-92 NSCLC it was 4 µM. In the assay with SW-620 colon, the TGI is 31.3 µM.
On to `O=C(CC(=O)C(=O)Nc1ccccc1)CC(c1ccccc1)c1c(O)c2ccccc2oc1=O` (stereo not drawn), for which the TGI with HCT-116 colon, in the assay on OVCAR-3 ovarian, with MALME-3M melanoma, in the assay with SK-MEL-28 melanoma, with EKVX NSCLC and in the assay on NCI-H522 lung was over 100 µM throughout. For the same compound, the TGI with CCRF-CEM leukemia, with IGROV1 ovarian, with RXF 393 renal, with HOP-92 NSCLC and in the assay with SW-620 colon was over 100 µM in each case.
In the case of `CC1=C(C(=O)N[C@@H](Cc2ccccc2)C(=O)O)N2C(=O)[C@@H](NC(=O)[C@@H](N)CC(C)C)[C@H]2SC1`, the TGI with OVCAR-3 ovarian, with MALME-3M melanoma, in the assay on SK-MEL-28 melanoma, in the assay with EKVX NSCLC, in the assay with NCI-H522 lung and in the assay on CCRF-CEM leukemia was over 100 µM in each case. Besides, the TGI in the assay on IGROV1 ovarian, in the assay on OVCAR-8 ovarian, in the assay with RXF 393 renal, in the assay on HOP-92 NSCLC and with SW-620 colon was over 100 µM each time.
`NC(=O)c1cc(-c2ccc(-n3ccnc3)cc2)n[nH]c1=O`: the TGI with HCT-116 colon, with MALME-3M melanoma, in the assay with NCI-H23 lung, in the assay on SK-MEL-28 melanoma, in the assay on EKVX NSCLC and in the assay with NCI-H522 lung was over 100 µM each time. Also, the TGI in the assay with HOP-62 NSCLC, in the assay on CCRF-CEM leukemia, with IGROV1 ovarian, in the assay on OVCAR-8 ovarian, in the assay on RXF 393 renal and with HOP-92 NSCLC was over 100 µM each time. Also, the TGI in the assay with SW-620 colon was over 100 µM.
Take `CCCCCCCC(=O)OC[C@@H](C[As](=O)(O)O)OC(=O)CCCCCCC`: the TGI in the assay with HCT-116 colon stood at 22.6 µM; in the assay on MALME-3M melanoma, 28.5 µM; in the assay on NCI-H23 lung it was 26.4 µM; in the assay on SK-MEL-28 melanoma, 26.6 µM; in the assay on EKVX NSCLC, 84.4 µM; with NCI-H522 lung, 4.83 µM. Also, the TGI in the assay on HOP-62 NSCLC is 32.9 µM; with CCRF-CEM leukemia, 9.55 µM; with IGROV1 ovarian it was 16.4 µM; in the assay with OVCAR-8 ovarian it was 37.5 µM; in the assay with RXF 393 renal it was 19.3 µM; with HOP-92 NSCLC, 37.6 µM. For the same compound, the TGI in the assay on SW-620 colon came to 25.9 µM.
As for `C#CCn1c(=O)ccn(/C(=C\C(=O)OCC)C(=O)OCC)c1=O`, the TGI with HCT-116 colon was 16.5 µM; with OVCAR-3 ovarian, 16.3 µM; in the assay on MALME-3M melanoma, 4.99 µM; in the assay on NCI-H23 lung it was 31.8 µM; with SK-MEL-28 melanoma it was 25.7 µM; in the assay with EKVX NSCLC it was 27.9 µM. For the same compound, the TGI in the assay with HOP-62 NSCLC is over 54.4 µM; with CCRF-CEM leukemia, over 20.9 µM; in the assay on IGROV1 ovarian, 29.8 µM; in the assay on OVCAR-8 ovarian, 5.42 µM; with RXF 393 renal it was 4.84 µM; in the assay with HOP-92 NSCLC, 4.5 µM. Also, the TGI with SW-620 colon amounted to 5.37 µM.
